Read-outs that look alike come from different tables or passages of the source.
Tests used:
elastase = experiment: Elastase activity with divalent cations in PBS, read at 405 nm; type: biochemical; conditions: for Elastase activity: 0.005M to 0.01M cation concentration in PBS; for sensitivity of elastase to the cation (comparison of the ions): read every minute for 15 minutes
Description: An assay was run that involved varying concentrations of each divalent cation, ranging from concentrations of 0.005M to 1.0M, in phosphate buffered saline (PBS). The positive control contained no cations, while the negative control contained no elastase. Solutions were read at 405 nm every minute for 15 minutes under controlled conditions. The optical density value of the negative control, which represented background interference, was subtracted from each result. These corrected optical density values from the two trials were averaged.

hypodermal brown fat = conditions: 21 days, base only 456566.375
Description: (§1) To prepare these solutions, a 1.0 M stock of zinc acetate [ZnAc*(H2O)2] (Mallinkrodt Lot 8740 KPRK) was prepared in sterile phosphate buffered saline (PBS, pH 7.2, Gibco BRL Lot #1111327) by dissolving 109.75 g in 500 mL. To 0.2 ml of Cetaphil® moisturizer base was added 20 μl of solution a, b, c, or d depending upon group (corresponding to Groups “A,” “B,” “C,” or “D”). For group A, added 20 μl PBS alone to 180 μl Cetaphil×84 tubes. For group B, added 20 μl 1.0M Zn to 180 μl Cetaphil×84 tubes. For group C, added 200 μl of 1.0M Zn to 19.8 ml PBS, vortexed, labeled as 0.01M Zn, and added 20 μl of […] to 180 μl Cetaphil×84 tubes. For group D, added 200 μl 0.01M Zn to 19.8 ml PBS, vortexed, labeled as 0.1 mM Zn, and added 20 μl […] to 180 μl Cetaphil×84 tubes. After addition of samples to moisturizer base, the samples were mixed to homogeneity and stored at 4° C. overnight. At N=4 per treatment group, C57 Black Six mice at 8 weeks of age were anesthetized with 3% isoflurane by inhalation, and were shaved at mid-scapular dorsal region. Moisturizer was applied daily at 0.2 cc per day for each group for a 21 day period. After 21 days application, the treated skin segment was harvested en bloc and subdivided into three equal portions: a cranial portion, a left lateral portion, and a right lateral portion. The cranial portion and the left lateral portion were fixed in 10% neutral buffered formalin for 12-16 hours, then rinsed in 70% ethanol and embedded in paraffin. The right lateral portion was snap frozen in OCT medium at the time of harvest and stored at −35° C. until use.
(§2) All procedures and analyses were performed by blinded observers. […] Images were analyzed using Image Pro Plus software (Media Cybernetics, Silver Spring, Md.) to determine total cross-sectional area of epidermis over standardized lengths. Mean and standard error were assessed using Statview (Abacus Concepts, Berkeley, Calif.), with comparisons made using ANOVA repeated measures and significance determined at 95% with post-hoc testing using Fisher PLSD or Scheffe F-test.

murine skin = conditions: for local irritation of skin: 21 days topical
Description: as §1
All procedures and analyses were performed by blinded observers.

deep white fat = conditions: 10 μM Zn++, 21 days, lateral abdomen; base only 29375.425; P = 0.0001
Description: as §2

epidermis = tested on: epidermis
Description: as §1
as §2, with “Paraffin-embedded specimens from animals treated in example 1 above were sectioned at 4-6 microns, deparaffinized, and stained with a combination of Verhoeff elastica stain and the Masson trichrome stain for morphological assessment of epidermal thickness. All” for “All”
Paraffin-embedded specimens from animals were treated in Example 1 except that the doses of 10.0 μM Zn^++, 1.0 μM Zn^++, 0.1 μM Zn^++, and the control were applied for 42 days. Specimens were fixed and embedded as above, sectioned at 4-6 microns, deparaffinized, and stained with a combination of Verhoeff elastica stain and the Masson trichrome stain for morphological assessment of epidermal thickness. All procedures and analyses were performed by blinded observers. […] Images were analyzed using Image Pro Plus software (Media Cybernetics, Silver Spring, Md.) to determine total cross-sectional area of epidermis over standardized lengths. Mean and standard error were assessed using Statview (Abacus Concepts, Berkeley, Calif.), with comparisons made using ANOVA repeated measures and significance determined at 95% with post-hoc testing using Fisher PLSD or Scheffe F-test.

| Elastase activity (elastase) | sensitivity of elastase to the cation (comparison of the ions) (elastase) | SMILES | Cross-sectional hypodermal adipose area across standardized epidermal lengths, Mean (hypodermal brown fat; 10 μM Zn++ (Z low), P=0.0001) [pixels] | Cross-sectional hypodermal adipose area across standardized epidermal lengths, Mean (hypodermal brown fat; 1.0 mM Zn++ (Z med)) [pixels] | Cross-sectional hypodermal adipose area across standardized epidermal lengths, Mean (hypodermal brown fat; 100 mM Zn++ (Z high)) [pixels] | elastase function as the concentration of zinc-containing components increases (elastase; increasing concentration) | elastin content of skin (black elastic fibers, Verhoeff Elastica stain) (murine skin; 21 days daily topical, 10 μM, 1.0 mM, 100 mM Zn++ in moisturizer base vs base only) | local irritation of skin (murine skin; high dose, 100 mM Zn++ (Z high)) | local irritation of skin (murine skin; lower doses (Z low, Z med)) | Cross-sectional deep adipose area across standardized epidermal lengths, Mean (deep white fat) [pixels] | Epidermal area across standardized epidermal lengths, Mean (epidermis; 0.1 μM Zn++ (Z low), 42 days, base only 6728.286) [pixels] | Epidermal area across standardized epidermal lengths, Mean (epidermis; 1.0 μM Zn++ (Z med), 42 days, base only 6728.286) [pixels] | Epidermal area across standardized epidermal lengths, Mean (epidermis; 10 μM Zn++ (Z high), 42 days, base only 6728.286, P = 0.0014) [pixels] | Epidermal area across standardized epidermal lengths, Mean (epidermis; 10.0 μM Zn++ (Z low), 21 days, base only 18221.646) [pixels] | Epidermal area across standardized epidermal lengths, Mean (epidermis; 1.0 mM Zn++ (Z med), 21 days, base only 18221.646) [pixels] | Epidermal area across standardized epidermal lengths, Mean (epidermis; 100 mM Zn++ (Z high), 21 days, base only 18221.646) [pixels] |
| --- | --- | --- | --- | --- | --- | --- | --- | --- | --- | --- | --- | --- | --- | --- | --- | --- |
| increased | most sensitive | [Ca+2] [Ca^2+] |  |  |  |  |  |  |  |  |  |  |  |  |  |  |
| increased | least sensitive | [Mg+2] [Mg^2+] |  |  |  |  |  |  |  |  |  |  |  |  |  |  |

| SMILES | Elastase activity (elastase) | sensitivity of elastase to the cation (comparison of the ions) (elastase) | Cross-sectional hypodermal adipose area across standardized epidermal lengths, Mean (hypodermal brown fat; 10 μM Zn++ (Z low), P=0.0001) [pixels] | Cross-sectional hypodermal adipose area across standardized epidermal lengths, Mean (hypodermal brown fat; 1.0 mM Zn++ (Z med)) [pixels] | Cross-sectional hypodermal adipose area across standardized epidermal lengths, Mean (hypodermal brown fat; 100 mM Zn++ (Z high)) [pixels] | elastase function as the concentration of zinc-containing components increases (elastase; increasing concentration) | elastin content of skin (black elastic fibers, Verhoeff Elastica stain) (murine skin; 21 days daily topical, 10 μM, 1.0 mM, 100 mM Zn++ in moisturizer base vs base only) | local irritation of skin (murine skin; high dose, 100 mM Zn++ (Z high)) | local irritation of skin (murine skin; lower doses (Z low, Z med)) | Cross-sectional deep adipose area across standardized epidermal lengths, Mean (deep white fat) [pixels] | Epidermal area across standardized epidermal lengths, Mean (epidermis; 0.1 μM Zn++ (Z low), 42 days, base only 6728.286) [pixels] | Epidermal area across standardized epidermal lengths, Mean (epidermis; 1.0 μM Zn++ (Z med), 42 days, base only 6728.286) [pixels] | Epidermal area across standardized epidermal lengths, Mean (epidermis; 10 μM Zn++ (Z high), 42 days, base only 6728.286, P = 0.0014) [pixels] | Epidermal area across standardized epidermal lengths, Mean (epidermis; 10.0 μM Zn++ (Z low), 21 days, base only 18221.646) [pixels] | Epidermal area across standardized epidermal lengths, Mean (epidermis; 1.0 mM Zn++ (Z med), 21 days, base only 18221.646) [pixels] | Epidermal area across standardized epidermal lengths, Mean (epidermis; 100 mM Zn++ (Z high), 21 days, base only 18221.646) [pixels] |
| --- | --- | --- | --- | --- | --- | --- | --- | --- | --- | --- | --- | --- | --- | --- | --- | --- |
| CC(=O)[O-].CC(=O)[O-].[Zn+2] [Zn^++, zinc acetate] | increased | most constantly inhibited | 436809.417 | 377185.833 | 132251.333 | stabilizing, then destabilizing, then restabilizing elastase function | dose-dependant increases in the elastin content of skin | epidermal sloughing and irritation occurs | without local signs of irritation | 73011.321 | 6710.000 | 7724.190 | 7203.875 | 16786.125 | 20799.188 | 27365.292 |

— US8975295B2, “Modulation of zinc levels to improve tissue properties” (Precision Dermatology, Inc., priority 2002, dated 2015)
